For test [1], the target named is human calcitonin receptor (CTR) and RAMP3 (AMY3) (Homo sapiens, UniProt O60896+P30988). The test is described as follows: Amylin Receptor cAMP Assay I. It is filed as cell-based. The note with it: COS-7/AMY3 cells, cAMP Hi-range Kit, read-out: Amylin Receptor cAMP Stimulation Activity: EC50. The source says: Amylin Receptor cAMP Assay I
AMYRs are heterodimers of the class B calcitonin (CT) G-protein-coupled receptor (CTR) and receptor activity-modifying proteins (RAMPs). All three RAMPs can interact with the CTR and form AMY1, AMY2, AMY3 with RAMP1, RAMP2 and RAMP3, respectively. Like other class B1 GPCRs, the CT receptor family is canonically coupled to Gs-mediated cAMP production, and measurement of cAMP accumulation has been the primary assay used to determine peptide selectivity and potency.
To optimize functional activity directed toward Gas coupling, COS-7 cells were stably transfected with human calcitonin receptor (CTR) and RAMP3, simultaneously. 100×concentration of compound working solutions were prepared (Agilent Technologies Bravo) with 4-fold serial dilution in 384-well Echo LDV plate (Labcyte, Cat #LP-0200). 100 nL/well 100× concentration of compound working solutions were moved to 384-well white low volume plate (Greiner, Cat #784075) using Labcyte ECHO550. 1×10^5 cells/mL COS-7/CTR or COS-7/AMY3 (HD Biosciences) cell suspensions prepared with assay buffer [DPBS containing 0.5 mM IBMX (Sigma, Cat #15879) and 0.1% BSA (GENVIEW, Cat #FAO16-100 g)], 10 μL cell suspensions were added to each well of previous generated assay plate which already contains 100 nL compound at 100× concentration using ThermoFisher Multidrop Combi (1000 cells/well). Seal the plate and incubate at 37° C. with 5% CO2 for 30 min.
After incubation, the cAMP assay signal was generated using cAMP Hi-range Kit (Cisbio). 5 μL cAMP-d2 working solution was added to each well, followed by 5 μL Anti-cAMP antibody-cryptate working solution which was added to each well using ThermoFisher Multidrop Combi. The samples were then incubated at room temperature for 1 hour protected from light. the fluorescence was read at 665 and 615 nm with Reader PerkinElmer EnVision.

The target in test [2] is T1, human calcitonin receptor (CTR) (Homo sapiens, UniProt P30988).
T1 construct: expressed in transfected cells; host or cells: COS-7 (COS7-human CTR Clone #2)
T1 sequence (P30988 25-474): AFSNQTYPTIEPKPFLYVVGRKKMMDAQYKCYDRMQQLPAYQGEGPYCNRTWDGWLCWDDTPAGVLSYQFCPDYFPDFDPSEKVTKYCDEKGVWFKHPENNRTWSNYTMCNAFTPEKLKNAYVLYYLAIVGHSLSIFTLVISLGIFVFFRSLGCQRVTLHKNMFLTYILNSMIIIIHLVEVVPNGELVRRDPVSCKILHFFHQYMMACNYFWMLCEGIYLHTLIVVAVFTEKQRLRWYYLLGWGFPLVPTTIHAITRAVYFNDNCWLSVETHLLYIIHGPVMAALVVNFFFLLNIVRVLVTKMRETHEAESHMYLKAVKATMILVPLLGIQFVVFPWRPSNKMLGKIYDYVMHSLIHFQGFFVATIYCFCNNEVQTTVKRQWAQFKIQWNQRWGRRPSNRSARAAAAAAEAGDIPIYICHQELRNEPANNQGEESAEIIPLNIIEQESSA
The test is described as follows: Calcitonin receptor (CTR) cAMP Assay. The test is classed as cell-based. The note with it: COS7-human CTR Clone #2 cells, cAMP dynamic 2 kit; read-out: Calcitonin Receptor cAMP Stimulation Activity: EC50. An outline of the steps:
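COS-7 cells stably expressing human CTR (2000 cells/well) treated with 4-fold serially diluted compounds in HBSS/20 mM HEPES/0.5 mM IBMX/0.1% casein, 30 min at 37° C. cAMP quantified by HTRF (cAMP-d2 plus anti-cAMP cryptate, 1 h RT), fluorescence read at 665 and 615 nm.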

human calcitonin receptor (CTR) and RAMP3 (AMY3), sequence (O60896 24-148, one chain of several): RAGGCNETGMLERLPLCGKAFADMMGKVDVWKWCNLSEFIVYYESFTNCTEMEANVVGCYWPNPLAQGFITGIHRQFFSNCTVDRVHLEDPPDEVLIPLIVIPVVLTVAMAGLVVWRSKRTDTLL

Consider `Cc1nnc(-c2c(CCc3ccc(F)cc3)nc3c(c2-c2ccc(C(=O)NCc4ccc(F)c(F)c4)s2)C(=O)N[C@H]3C(C)C)o1` [Compound 1, N-(3,4-difluorophenyl)methyl-5-{(S)-5-[2-(p-fluorophenyl)ethyl]-3-isopropyl-6-(5-methyl-1,3,4-oxadiazol-2-yl)-1-oxo-2,4-diaza-7-indanyl)-2-thenamide], for which the EC50 (usually the concentration that produces a half-maximal response) in test [1] was found to be 43.9 nM; in test [2] it was 3.7 nM. Take `Cc1nnc(-c2c(CCc3ccc(F)cc3)nc3c(c2-c2ccc(C(=O)NCc4ccc(F)c(F)c4)s2)C(=O)N[C@@H]3C(C)C)o1` [Compound 2, N-(3,4-difluorophenyl)methyl-5-((R)-5-[2-(p-fluorophenyl)ethyl]-3-isopropyl-6-(5-methyl-1,3,4-oxadiazol-2-yl)-1-oxo-2,4-diaza-7-indanyl}-2-thenamide]: the figures for the concentration giving a half-maximal response (EC50) in test [1] and in test [2] were 33.3 nM and 7 nM, respectively. The matching figures for `Cc1nnc(-c2c(CCc3ccc(F)cc3)nc3c(c2-c2ccc(C(=O)NCc4ccc(F)c(F)c4)s2)C(=O)N2CCC[C@@H]32)o1` [Compound 4, (S)—N-(3,4-difluorobenzyl)-5-(2-(4-fluorophenethyl)-3-(5-methyl-1,3,4-oxadiazol-2-yl)-5-oxo-7,8,9,9a-tetrahydro-5H-pyrido[2,3-a]pyrrolizin-4-yl)thiophene-2-carboxamide]: 47.5 nM and 4.5 nM.

`Cc1nnc(-c2c(COc3ccc(F)cc3)nc3c(c2-c2ccc(C(=O)NCc4ccc(F)c(F)c4)s2)C(=O)N2CCC[C@@H]32)o1` [Compound 7, (S)—N-(3,4-difluorobenzyl)-5-(2-((4-fluorophenoxy)methyl)-3-(5-methyl-1,3,4-oxadiazol-2-yl)-5-oxo-7,8,9,9a-tetrahydro-5H-pyrido[2,3-a]pyrrolizin-4-yl)thiophene-2-carboxamide]: the EC50 in test [1] stood at 128 nM; in test [2], 76 nM. The matching figures for `Cc1nnc(-c2c(CC(C)c3ccc(F)cc3)nc3c(c2-c2ccc(C(=O)NCc4ccc(F)c(F)c4)s2)C(=O)N2CCC[C@@H]32)o1` (stereo partly drawn) [Compound 9, N-(3,4-difluorobenzyl)-5-((9aS)-2-(2-(4-fluorophenyl)propyl)-3-(5-methyl-1,3,4-oxadiazol-2-yl)-5-oxo-7,8,9,9a-tetrahydro-5H-pyrido[2,3-a]pyrrolizin-4-yl)thiophene-2-carboxamide]: 53.3 nM and 15 nM. The matching figures for `Cc1nnc(-c2c(CCc3ccc(F)cc3)nc3c(c2-c2ccc(C(=O)NCc4ccc(F)c(F)c4)s2)c(=O)n2n3CCC2)o1` [Compound 15, N-(3,4-difluorophenyl)methyl-5-(11-[2-(p-fluorophenyl)ethyl]-10-(5-methyl-1,3,4-oxadiazol-2-yl)-7-oxo-2,6,12-triazatricyclo[6.4.0.0^2,6]dodeca-1(12),8,10-trien-9-yl}-2-thenamide]: 88.4 nM and 17 nM. The matching figures for `Cc1nnc(-c2c(CCc3ccc(F)cc3)nc3c(c2-c2ccc(C(=O)NCc4ccc(F)c(F)c4)s2)S(=O)(=O)N2CCC[C@@H]32)o1` [Compound 17, (S)—N-(3,4-difluorobenzyl)-5-(2-(4-fluorophenethyl)-3-(5-methyl-1,3,4-oxadiazol-2-yl)-5,5-dioxido-7,8,9,9a-tetrahydropyrrolo[1′,2′:2,3]isothiazolo[4,5-b]pyridin-4-yl)thiophene-2-carboxamide]: 65.8 nM and 5.5 nM. On to `Cc1nnc(-c2c(CCc3ccc(F)cc3)nc3c(c2-c2ccc(C(=O)NCc4ccc(F)c(F)c4)s2)S(=O)(=O)N[C@H]3C(C)C)o1` [Compound 18, (S)—N-(3,4-difluorobenzyl)-5-(5-(4-fluorophenethyl)-3-isopropyl-6-(5-methyl-1,3,4-oxadiazol-2-yl)-1,1-dioxido-2,3-dihydroisothiazolo[4,5-b]pyridin-7-yl)thiophene-2-carboxamide], for which the half-maximal effective concentration (EC50) in test [1] amounted to 31.1 nM; in test [2], 2 nM. On to `Cc1nnc(-c2c(CCc3ccc(F)cc3)nc3c(c2-c2ccc(C(=O)NCc4ccc(F)c(F)c4)s2)S(=O)(=O)CC3C(C)C)o1` (stereo not drawn) [Compound 19, N-(3,4-difluorobenzyl)-5-(5-(4-fluorophenethyl)-3-isopropyl-6-(5-methyl-1,3,4-oxadiazol-2-yl)-1,1-dioxido-2,3-dihydrothieno[3,2-b]pyridin-7-yl)thiophene-2-carboxamide], for which the 50% effective concentration (EC50) in test [1] turned out to be 25.3 nM; in test [2], 5.3 nM. The matching figures for `Cc1nnc(-c2c(CCC3CCOCC3)nc3c(c2-c2ccc(C(=O)NCc4ccc(F)c(F)c4)s2)C(=O)N2CCC[C@@H]32)o1` [Compound 29]: 128 nM and 31 nM.

Regarding `Cc1nnc(-c2c(CCc3ccc(F)cc3F)nc3c(c2-c2ccc(C(=O)NCc4ccc(F)c(F)c4)s2)C(=O)N2CCC[C@@H]32)o1` [Compound 42, 5-[(9aS)-2-[2-(2,4-difluorophenyl)ethyl]-3-(5-methyl-1,3,4-oxadiazol-2-yl)-5-oxo-7,8,9,9a-tetrahydropyrido[2,3-a]pyrrolizin-4-yl]-N-[(3,4-difluorophenyl)methyl]thiophene-2-carboxamide], the 50% effective concentration (EC50) stood at 114 nM in test [1] and 14 nM in test [2].

On to `Cc1nnc(-c2c(CCC3CCOC(C)(C)C3)nc3c(c2-c2ccc(C(=O)NCc4ccc(F)c(F)c4)s2)C(=O)N2CCC[C@@H]32)o1` (stereo partly drawn) [Compound 66, N-(3,4-difluorobenzyl)-5-((9aS)-2-(2-(2,2-dimethyltetrahydro-2H-pyran-4-yl)ethyl)-3-(5-methyl-1,3,4-oxadiazol-2-yl)-5-oxo-7,8,9,9a-tetrahydro-5H-pyrido[2,3-a]pyrrolizin-4-yl)thiophene-2-carboxamide], for which the EC50 in test [1] is 975 nM. The same measure, in the same setting: to `Cc1nnc(-c2c(CCC3CCOCC3)nc3c(c2-c2cc4ccnc(N[C@@H]5CCc6cc(F)ccc65)c4s2)C(=O)N2CCC[C@@H]32)o1` [Compound 71] belongs 27.8 nM; to `Cc1nnc(-c2c(CCC3CCOCC3)nc3c(c2-c2cc4ccnc(N[C@@H]5CCc6ccc(F)cc65)c4s2)C(=O)N2CCC[C@@H]32)o1` [Compound 72], 81.4 nM; to `COc1cccc(CNc2nccc3cc(-c4c5c(nc(CCC6CCOCC6)c4-c4nnc(C)o4)[C@@H]4CCCN4C5=O)sc23)c1` [Compound 73], 2200 nM.

In the case of `CO[C@H]1C[C@@H](Nc2nccc3cc(-c4c5c(nc(CCC6CCOCC6)c4-c4nnc(C)o4)[C@@H]4CCCN4C5=O)sc23)c2ccccc21` [Compound 74], the EC50 in test [1] was determined as 860 nM. With `Cc1cnc(-c2c(CCC3CCOCC3)nc3c(c2-c2cc4ccnc(NCc5cncc(F)c5)c4s2)C(=O)N2CCC[C@@H]32)o1` [Compound 75], the 50% effective concentration (EC50) in test [1] was determined as 360 nM.

For `CCc1nc2c(c(-c3ccc(C(=O)N[C@@H]4CCc5cc(F)ccc54)s3)c1-c1nnc(C)o1)C(=O)N1CCC[C@@H]21` [Compound 82, N—[(R)-5-fluoro-1-indanyl]-5-((2S)-11-ethyl-10-(5-methyl-1,3,4-oxadiazol-2-yl)-7-oxo-6,12-diazatricyclo[6.4.0.0^2,6]dodeca-1(8),9,11-trien-9-yl}-2-thenamide], in test [1], the EC50 came out at 1810 nM. On the same count and under the same terms, to `COc1cccc2c1CC[C@H]2Nc1nccc2cc(-c3c4c(nc(CCC5CCOCC5)c3-c3nnc(C)o3)[C@@H]3CCCN3C4=O)sc12` [Compound 83, (2S,6R)-9-(7-[(R)-4-methoxy-1-indanylamino]-1-thia-6-aza-2-indenyl}-10-(5-methyl-1,3,4-oxadiazol-2-yl)-11-[2-(tetrahydro-2H-pyran-4-yl)ethyl]-6,12-diazatricyclo[6.4.0.0^2,6,]dodeca-1(8), 9,11-trien-7-one] belongs 59 nM.

(Values after patent US20250051355A1, “COMPOUNDS, COMPOSITIONS, AND METHODS” (ACONCAGUA BIO, INC., priority 2023, published 2025).)
